System: parasites (ring stage parasites, parasite growth)
Assay: Parasite LDH growth assay (Parasite Assay), antiparasite potency
Format: cell-based
Details: 72 hours growth, LDH readout
Summary of the method: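 Ring-stage culture was adjusted to 0.7% parasitemia and 2% haematocrit in bicarbonate-buffered RPMI-Hepes with heat-inactivated human serum and 0.5% albumax, then added to compound. Plates were incubated 72 h at 37 °C in gassed humidified boxes, frozen at −80 °C overnight and thawed, and growth was read by LDH assay.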

| Structure (SMILES) | EC50 (72 h, Table 3) | EC50 (Table 3) | other results |
| --- | --- | --- | --- |
| CC1(C)CC(=O)N([C@@H](c2cncc(Cl)c2)[C@@H]2C[C@H]2C(=O)N[C@H]2C[C@H](C(F)(F)F)Oc3ccccc32)C(=N)N1 [Example 60B] | 100 nM |  |  |
| CC[C@]1(C)CC(=O)N([C@H](CCOC)[C@@H]2C[C@H]2C(=O)N[C@H]2C[C@H](C(F)(F)F)Oc3ccccc32)C(=N)N1 [Example 62B] | 0.8 nM |  |  |
| COCC[C@H]([C@@H]1C[C@H]1C(=O)NC1CC(C)(C)Oc2cc(F)ccc21)N1C(=N)NC(C)(C)CC1=O (stereo partly shown) [Example 76A] | 17 nM |  |  |
| CCC1(CC)CC(=O)N(C[C@@H]2C(C)[C@H]2C(=O)N[C@@H]2c3ccccc3OC(C)(C)[C@H]2O)C(=N)N1 (single isomer, unassigned) [Example 30B] |  | 7.7 nM |  |
| CC1(C)CC(=O)N(C[C@@H]2C[C@H]2C(=O)N[C@H]2CC(C)(C)Oc3ccc(Cl)cc32)C(=N)N1 [Example 95] | 110 nM |  |  |
| COCC[C@H]([C@@H]1C[C@H]1C(=O)N[C@H]1CC(C)(C)Oc2ccc(C)cc21)N1C(=N)NC(C)(C)CC1=O [Example 132] | 6.7 nM |  |  |
| COCC[C@H]([C@@H]1C[C@H]1C(=O)NC1CC(C)(COC)Oc2ccccc21)N1C(=N)NC(C)(C)CC1=O (single isomer, unassigned) [Example 82D] |  | 27 nM |  |
| CCC1(C)CC(NC(=O)[C@@H]2C[C@H]2[C@@H](CCOC)N2C(=N)NC(C)(C)CC2=O)c2ccccc2O1 (single isomer, unassigned) [Example 75C] |  | 7 nM |  |
| CC[C@]1(C)CC(=O)N(C(c2cncc(F)c2)[C@@H]2C[C@H]2C(=O)N[C@@H]2c3ccccc3OC(C)(C)C2(C)O)C(=N)N1 (single isomer, unassigned) [Example 103B] |  | 2.1 nM |  |
| CCC1(C)CC(NC(=O)[C@@H]2C[C@H]2[C@@H](c2cccnc2)N2C(=N)NC(C)(C)CC2=O)c2ccccc2O1 (single isomer, unassigned) [Example 105D] |  | 0.9 nM |  |
| CC(C)C1(C)CC(NC(=O)[C@@H]2C[C@H]2[C@@H](c2cccnc2)N2C(=N)NC(C)(C)CC2=O)c2ccccc2O1 (single isomer, unassigned) [Example 81C] |  | 0.9 nM |  |
| COc1ccc([C@H]([C@@H]2C[C@H]2C(=O)N[C@H]2CC(C)(C)Oc3ccccc32)N2C(=N)NC(C)(C)CC2=O)cn1 [Example 38] | 6.5 nM |  |  |
| COCC[C@H]([C@@H]1C[C@H]1C(=O)N[C@H]1CC(C)(C)Oc2cccc(F)c21)N1C(=N)NC(C)(C)CC1=O [Example 88A] | 5.2 nM |  |  |
| CCC1(CC)CC(=O)N(C[C@H]2C[C@@H]2C(=O)N[C@@H]2c3ccccc3C[C@H]2O)C(=N)N1 [Example 6A] | 188 nM |  |  |
| COCC[C@H]([C@@H]1C[C@H]1C(=O)N[C@H]1C[C@H](C(F)(F)F)Oc2ccccc21)N1C(=N)N[C@](C)(C(C)C)CC1=O [Example 21B] |  | 1 nM |  |
| CC1(C)CC(=O)N([C@H](c2cccnc2)[C@@H]2C[C@H]2C(=O)NC2CC(C)(C)Oc3cc(F)ccc32)C(=N)N1 (stereo partly shown) [Example 77A] | 1.7 nM |  |  |
| CCC1(C)CC(NC(=O)[C@@H]2C[C@H]2[C@@H](c2cccnc2)N2C(=N)NC(C)(C)CC2=O)c2ccccc2O1 (single isomer, unassigned) [Example 105C] |  | 0.8 nM |  |
| CCC1(CC)CC(=O)N(CC2C(C(=O)N[C@H]3C[C@H](C(F)(F)F)Oc4ccccc43)C2(F)F)C(=N)N1 (single isomer, unassigned) [Example 17B] |  | 20 nM |  |
| CC1(C)CC(=O)N(C[C@@H]2C[C@H]2C(=O)N[C@H]2CC(C3CC3)Oc3ccccc32)C(=N)N1 (stereo partly shown) [Example 140A] | 220 nM |  |  |
| CC1(C)CC(=O)N(C[C@@H]2C[C@H]2C(=O)N[C@H]2CC(C)(C)Oc3cccc(OC(F)(F)F)c32)C(=N)N1 [Example 118] | 63 nM |  |  |
| CCC1(CC)CC(=O)N([C@H](CCOC)[C@@H]2C[C@H]2C(=O)N[C@H]2C[C@H](C(F)(F)F)Oc3ccccc32)C(=N)N1 [Example 14] | 0.9 nM |  |  |
| COc1cccc2c1C(NC(=O)[C@@H]1C[C@H]1[C@@H](c1cccnc1)N1C(=N)NC(C)(C)CC1=O)CC(C)(C)O2 (stereo partly shown) [Example 96A] | 2.7 nM |  |  |
| CCC1(CC)CC(=O)N(C[C@@H]2C[C@H]2C(=O)N[C@H]2CC(C)(C)Oc3ccccc32)C(=N)N1 [Example 5] | 49 nM |  |  |
| CC1(C)CC(=O)N([C@H](c2cncc(Cl)c2)[C@@H]2C[C@H]2C(=O)N[C@H]2CC(C)(C)Oc3ccccc32)C(=N)N1 [Example 58B] | 1 nM |  |  |
| CCC1(CC)CC(=O)N([C@H](c2cccnc2)[C@@H]2C(C)[C@H]2C(=O)N[C@H]2CC(C)(C)Oc3ccccc32)C(=N)N1 (stereo partly shown) [Example 56B] | 0.7 nM |  |  |
| CC[C@]1(C)CC(=O)N(C(c2cncc(F)c2)[C@@H]2C[C@H]2C(=O)NC2c3ccccc3OC(C(F)(F)F)C2O)C(=N)N1 (single isomer, unassigned) [Example 104B] |  | 22 nM |  |
| CC1(C)CC(=O)N([C@H](c2cccnc2)[C@@H]2C[C@H]2C(=O)N[C@H]2CC(C)(C)Oc3ccc(Cl)cc32)C(=N)N1 [Example 120] | 1 nM |  |  |
| CC1(C)CC(=O)N([C@H](c2cccnc2)[C@@H]2C[C@H]2C(=O)N[C@@H]2CC(C)(C)Oc3c(C(F)(F)F)ccc(F)c32)C(=N)N1 [Example 115A] | 6.6 nM |  |  |

| Structure (SMILES) | EC50 (72 h, Table 3) | EC50 (Table 3) | other results |
| --- | --- | --- | --- |
| CCC1(CC)CC(=O)N(C[C@@H]2C[C@H]2C(=O)N[C@@H]2c3ccccc3C[C@H]2O)C(=N)N1 [Example 6B] | 269 nM |  |  |
| CC1(C)CC(=O)N([C@H](c2cccnc2)[C@@H]2C[C@H]2C(=O)NC2CC(C)(C)Oc3ccc(C(F)(F)F)cc32)C(=N)N1 (single isomer, unassigned) [Example 109B] |  | 1 nM |  |
| COCC[C@H]([C@@H]1C[C@H]1C(=O)N[C@H]1C[C@H](C(F)(F)F)Oc2ccccc21)N1C(=N)NC(C)(C)CC1=O [Example 24B] | 2 nM |  |  |
| CC1C[C@H](NC(=O)[C@@H]2C[C@H]2CN2C(=N)NC(C)(C)CC2=O)c2cc(F)ccc2O1 (stereo partly shown) [Example 139B] |  | 130 nM |  |
| COCC1(C)CC(NC(=O)[C@@H]2C[C@H]2[C@@H](c2cccnc2)N2C(=N)NC(C)(C)CC2=O)c2ccccc2O1 (single isomer, unassigned) [Example 108B] |  | 3.7 nM |  |
| CCC1(CC)CC(=O)N(CC2CC2C(=O)N[C@H]2CCOc3ccccc32)C(=N)N1 (stereo partly shown) [Example 4C] | 85 nM |  |  |
| CC1(C)CC(=O)N(C(c2cccnc2)[C@H]2[C@H](C(=O)N[C@H]3CC(C)(C)Oc4ccccc43)C2(C)C)C(=N)N1 (stereo partly shown) [Example 49B] |  | 14 nM |  |
| CC1[C@@H]([C@H](c2cccnc2)N2C(=N)NC(C)(C)CC2=O)[C@@H]1C(=O)N[C@H]1CC(C)(C)Oc2ccccc21 (stereo partly shown) [Example 57B] | 100 nM |  |  |
| CC1(C)CC(=O)N(C[C@@H]2C[C@H]2C(=O)N[C@H]2CC(C3CC3)Oc3ccccc32)C(=N)N1 (stereo partly shown) [Example 140B] |  | 280 nM |  |
| CCC1(CC)CC(=O)N(C(CC(C)OC)[C@@H]2C[C@H]2C(=O)N[C@H]2CC(C)(C)Oc3ccccc32)C(=N)N1 (single isomer, unassigned) [Example 142D] |  |  | EC50 (Table 4 (unit inferred)): 115 nM |
| CC1(C)CC(=O)N(C[C@@H]2C[C@H]2C(=O)NC2CC(C)(C)Oc3c(Cl)cc(Cl)cc32)C(=N)N1 (stereo partly shown) [Example 97A] | 180 nM |  |  |
| CC1(C)CC(=O)N([C@H](c2cccnc2)[C@@H]2C[C@H]2C(=O)NC2CC(C)(C)Oc3c(F)cccc32)C(=N)N1 (stereo partly shown) [Example 93B] |  | 2.4 nM |  |
| COCC[C@H]([C@@H]1C[C@H]1C(=O)N[C@@H]1CC(C)(C)Oc2cccc(OC)c21)N1C(=N)NC(C)(C)CC1=O [Example 74A] | 33 nM |  |  |
| COCC[C@H]([C@@H]1C[C@H]1C(=O)NC1CC(C)(C(C)C)Oc2ccccc21)N1C(=N)NC(C)(C)CC1=O (single isomer, unassigned) [Example 80B] |  | 6.6 nM |  |
| CC1(C)CC(=O)N(C[C@@H]2C[C@H]2C(=O)N[C@H]2CC(C)(C)Oc3cc(Cl)ccc32)C(=N)N1 [Example 90] | 225 nM |  |  |
| CC[C@]1(C)CC(=O)N([C@H](CCOC)[C@@H]2C[C@H]2C(=O)N[C@H]2CC(C)(C)Oc3ccc(Cl)cc32)C(=N)N1 [Example 124] | 0.8 nM |  |  |
| CC1[C@@H](C(c2cccnc2)N2C(=N)NC(C)(C)CC2=O)[C@@H]1C(=O)N[C@H]1C[C@H](C(F)(F)F)Oc2ccccc21 (single isomer, unassigned) [Example 54B] |  | 130 nM |  |
| CC1(C)CC(=O)N([C@H](c2cccnc2)[C@@H]2C[C@H]2C(=O)NC2CC(C)(C)Oc3c(Cl)cc(Cl)cc32)C(=N)N1 (stereo partly shown) [Example 94A] | 0.9 nM |  |  |
| CC1(C)CC(=O)N(C[C@@H]2C[C@H]2C(=O)N[C@H]2CC(C)(C)Oc3ccc(F)cc32)C(=N)N1 [Example 71] | 125 nM |  |  |
| COc1ccc([C@H]([C@@H]2C[C@H]2C(=O)N[C@@H]2c3ccccc3OC(C)(C)[C@H]2O)N2C(=N)NC(C)(C)CC2=O)cn1 [Example 39] | 10.1 nM |  |  |
| CC[C@]1(C)CC(=O)N([C@H](CCOC)[C@@H]2C[C@H]2C(=O)NC2CC(C)(C)Oc3ccc(F)cc32)C(=N)N1 (single isomer, unassigned) [Example 130B] |  | 2.4 nM |  |
| CCC1(CC)CC(=O)N([C@H](c2cccnc2)[C@@H]2C[C@H]2C(=O)N[C@H]2CC(C)(C)Oc3ccccc32)C(=N)N1 [Example 2, (1R,2R)-2-((S)-(4,4-diethyl-2-imino-6-oxotetrahydropyrimidin-1(2H)-yl)(pyridin-3-yl)methyl)-N—((S)-2,2-dimethylchroman-4-yl)cyclopropanecarboxamide] | 0.9 nM |  |  |
| CC1(C)CC(=O)N([C@@H](c2cccnc2)[C@H]2[C@H](C(=O)N[C@H]3C[C@H](C(F)(F)F)Oc4ccccc43)C2(C)C)C(=N)N1 [Example 43B] | 37 nM |  |  |
| CCC1(CC)CC(=O)N(C[C@@H]2C[C@H]2C(=O)N[C@@H]2C[C@@H](C(F)(F)F)Oc3ccccc32)C(=N)N1 [Example 8B] | 5.3 nM |  |  |
| CCC1(CC)CC(=O)N([C@@H](c2cccnc2)[C@H]2[C@H](C(=O)N[C@H]3CC(C)(C)Oc4ccccc43)C2(C)C)C(=N)N1 [Example 48B] | 7.4 nM |  |  |
| CC(C)C1(C)CC(NC(=O)[C@@H]2C[C@H]2[C@@H](c2cccnc2)N2C(=N)NC(C)(C)CC2=O)c2ccccc2O1 (single isomer, unassigned) [Example 81D] |  | 1.3 nM |  |
| CCC1(CC)CC(=O)N(C[C@@H]2C(C)[C@H]2C(=O)NC2c3ccccc3OC2(C)C)C(=N)N1 (stereo partly shown) [Example 36A] | 247 nM |  |  |
